Earlier results as cited in patent publication US7727979B2, “Guanidine derivatives and their use as neuropeptide FF receptor antagonists” (Actelion Pharmaceuticals Ltd., priority 2003, dated 2010).

Tested on: human and rat-NPFF1 receptor

NC(N)=NCCC[C@@H](NC(=O)C(c1ccccc1)c1ccccc1)C(=O)NCc1ccc(O)cc1 [BIBP3226]
times higher affinity to NPFF1 receptor than to the corresponding NPFF2 receptors: 10-60 times
